From patent US6426357B1, “Antagonists of follicle stimulating hormone activity” (Affymax, Inc., priority 1999, dated 2002)

melting point: 241 to 243 °C
SMILES: NC(=O)CCN1C(=O)[C@@H](CC(=O)NCCc2ccc(Br)cc2)S[C@H]1c1ccc(C#Cc2ccccc2)s1 (relative stereo) [Example 13, 3-[(2S*,5R*)-5-{[2-(4-Bromo-phenyl)-ethylcarbamoyl]-methyl}-4-oxo-2-(5-phenylethynyl-thiophen-2-yl)-thiazolidin-3-yl]-propionamide]
